Read-outs that look alike come from different tables or passages of the source.
Key:
Cordana musae = assay: in vitro-Test with fungal microorganisms, Method A (tables E1-E8); format: cell-based; conditions: Neocordana musae, mixing partner alone, read-out: Efficacy %
Protocol: (§1) Example: In Vitro-Test with Fungal Microorganisms
(§2) Wells of 96-well microtiter plates are filled with 10 μl of a preparation of test compound or compound combination in methanol+emulsifier alkylaryl-polyglycol-ether. Thereafter, the solvent is evaporated in a hood. At the next step, 100 μl of liquid potato dextrose medium is given into each well, that has been amended with an appropriate concentration of spores or mycelium suspension of the test fungus.
(§3) With the aid of a photometer, the extinction in all wells is measured at the wavelength of 620 nm.
(§4) The microtiter plates are incubated at 20° C. and 85% relative humidity. The inhibition of growth is determined again photometrically 3-5 days after the application. Efficacy is calculated in relation to the untreated control, 0% efficacy means fungal growth as high as in untreated control while 100% efficacy means no fungal growth is measured.
(§5) The data in tables A1 to A12, B1 to B14, C1 to C10, D1 to D8, E1 to E8, F1 to F11, G1 to G4, H1 to H4 and I1 to I5 were collected according to Method A. The data in tables A13 to A22, B15 to B18, C11 to C20, E9 to E16, F12 to F15, G5 to G15, H5 to H8, I6 to I11 and J1 to J11 were collected according to Method B.

Alternaria alternate = assay: in vitro-Test with fungal microorganisms, Method A (tables A1-A12); format: cell-based, Alternaria alternata; conditions: Alternaria, applied alone, read-out: Efficacy %
Protocol: as §1, §2, §3, §4, §5

Botrytis cinerea = assay: in vitro-Test with fungal microorganisms, Method A (tables B1-B14); format: cell-based; conditions: Botrytis cinerea
Protocol: as §1, §2, §3, §4, §5

[1] = tested on: Colletotrichum lindemuthianum; assay: in vitro-Test with fungal microorganisms, Method A (tables D1-D8); format: cell-based; conditions: Colletotrichum lindemuthianum, mixing partner alone, read-out: Efficacy %
Protocol: as §1, §2, §3, §4, §5

Diaporthe citri = assay: in vitro-Test with fungal microorganisms, Method A (tables F1-F11); format: cell-based; conditions: Diaporthe citri, applied alone, read-out: Efficacy
Protocol: as §1, §2, §3, §4, §5

Fusarium culmorum = assay: in vitro-Test with fungal microorganisms, Method A (tables G1-G4); format: cell-based; conditions: alone
Protocol: as §1, §2, §3, §4, §5

## CCN(C)C=Nc1cc(C)c(Oc2ccccc2F)cc1Cl [(15.064), N′-[2-chloro-4-(2-fluorophenoxy)-5-methylphenyl]-N-ethyl-N-methylimidoformamide]
Cordana musae; 0.4 ppm
  inhibition of growth at 0.4 ppm: 0%
Cordana musae; 2.0 ppm
  inhibition of growth at 2 ppm: 0%
Cordana musae; 10.0 ppm
  inhibition of growth at 10 ppm: 27%
Alternaria alternate; 0.08 ppm
  inhibition of growth at 0.08 ppm: 2%
Alternaria alternate; 0.4 ppm
  inhibition of growth at 0.4 ppm: 5%
Alternaria alternate; 2.0 ppm
  inhibition of growth at 2 ppm: 12%
Alternaria alternate; 10.0 ppm
  inhibition of growth at 10 ppm: 50%
Botrytis cinerea; read-out: Efficacy
  inhibition of growth at 0.08 ppm: 5%
  inhibition of growth at 2 ppm: 2%
Botrytis cinerea; 0.4 ppm, read-out: Efficacy
  inhibition of growth at 0.4 ppm: 21%
Botrytis cinerea; alone, read-out: Efficacy %
  inhibition of growth at 0.08 ppm: 9%
  inhibition of growth at 2 ppm: 5%
[1]; 0.08 ppm
  inhibition of growth at 0.08 ppm: 16%
[1]; 0.4 ppm
  inhibition of growth at 0.4 ppm: 0%
[1]; 2.0 ppm
  inhibition of growth at 2 ppm: 0%
Diaporthe citri; 2.0 ppm
  inhibition of growth at 2 ppm: 0%
Diaporthe citri; 10.0 ppm
  inhibition of growth at 10 ppm: 0%
Fusarium culmorum; Fusarium culmorum, 2.0 ppm, read-out: Efficacy
  inhibition of growth at 2 ppm: 0%
Fusarium culmorum; Fusarium culmorum, 10.0 ppm, read-out: Efficacy
  inhibition of growth at 10 ppm: 1%

## CCO[PH](=O)[O-].CCO[PH](=O)[O-].CCO[PH](=O)[O-].[Al+3] [fosetylaluminium]
Fusarium culmorum; 0.8 ppm
  Efficacy: 7%
Fusarium culmorum; 4.0 ppm
  Efficacy: 0%
Fusarium culmorum; 20.0 ppm
  Efficacy: 5%
Fusarium culmorum; 100.0 ppm
  Efficacy: 9%

From patent publication US12653191B2, “Active compound combinations” (Bayer Aktiengesellschaft, priority 2020, dated 2026)
